Molecular target: IRAK4 (Homo sapiens (Human), UniProt Q9NWZ3)
Assay: IRAK4 Inhibition Assay
Format: biochemical
Conditions: ATP 500 μM; IRAK4 0.6 nM
Method: The assays were performed in U-bottom 384-well plates. The final assay volume was 30 μL prepared from 15 μL additions of enzyme and substrates (fluoresceinated peptide and ATP) and test compounds in assay buffer (20 mM HEPES pH 7.2, 10 mM MgCl2, 0.015% Brij 35 and 4 mM DTT). The reaction was initiated by the combination of IRAK4 with substrates and test compounds. The reaction mixture was incubated at room temperature for 60 min. and terminated by adding 45 μL of 35 mM EDTA to each sample. The reaction mixture was analyzed on the Caliper LABCHIP® 3000 (Caliper, Hopkinton, Mass.) by electrophoretic separation of the fluorescent substrate and phosphorylated product. Inhibition data were calculated by comparison to no enzyme control reactions for 100% inhibition and vehicle-only reactions for 0% inhibition. The final concentrations of reagents in the assays are ATP, 500 μM; FL-IPTSPITTTYFFFKKK peptide 1.5 μM; IRAK4, 0.6 nM; and DMSO, 1.6%.

Sequence of IRAK4 (Q9NWZ3 whole entry): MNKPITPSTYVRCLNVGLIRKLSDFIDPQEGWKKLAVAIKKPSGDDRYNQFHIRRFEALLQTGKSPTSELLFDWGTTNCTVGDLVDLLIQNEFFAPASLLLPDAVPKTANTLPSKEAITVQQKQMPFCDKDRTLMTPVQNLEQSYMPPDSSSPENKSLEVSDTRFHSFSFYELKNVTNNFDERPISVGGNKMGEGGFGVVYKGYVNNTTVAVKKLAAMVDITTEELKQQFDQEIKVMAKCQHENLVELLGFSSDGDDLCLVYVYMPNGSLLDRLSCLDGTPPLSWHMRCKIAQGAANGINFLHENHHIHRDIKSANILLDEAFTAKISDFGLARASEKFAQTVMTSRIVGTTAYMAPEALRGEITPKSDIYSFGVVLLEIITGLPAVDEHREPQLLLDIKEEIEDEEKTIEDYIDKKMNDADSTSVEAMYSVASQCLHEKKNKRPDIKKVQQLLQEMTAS

| SMILES | IC50 |
| --- | --- |
| CC(C)Nc1cc(-c2cnn3cc(Cl)cnc23)ncc1C(=O)Nc1cnn(CC(=O)NC[C@@H](F)C(C)(C)O)c1 [Example 10, (R)-6-(6-chloropyrazolo[1,5-a]pyrimidin-3-yl)-N-(1-(2-((2-fluoro-3-hydroxy-3-methylbutyl)amino)-2-oxoethyl)-1H-pyrazol-4-yl)-4-(isopropylamino)nicotinamide] | 99 nM |
| CC(C)(O)[C@H](F)CNC(=O)c1cnc(-c2cnn3cc(Cl)cnc23)cc1NC1CCC(F)C1 (stereo partly drawn) [Example 86, 6-(6-chloropyrazolo[1,5-a]pyrimidin-3-yl)-N—((R)-2-fluoro-3-hydroxy-3-methylbutyl)-4-((3-fluorocyclopentyl)amino)nicotinamide] | 4 nM |
| COC1CCC(F)(CCNC(=O)c2cnc(-c3cnn4cc(Cl)cnc34)cc2NC2COC2)CC1 (stereo not shown) [Example 17, 6-(6-chloropyrazolo[1,5-a]pyrimidin-3-yl)-N-(2-(1-fluoro-4-methoxycyclohexyl)ethyl)-4-(oxetan-3-ylamino)nicotinamide] | 19 nM |
| CC(C)(O)[C@H](F)CNC(=O)c1cnc(-c2cnn3cc(Cl)cnc23)cc1NC1CCC(F)C1 (stereo partly drawn) [Example 85, 6-(6-chloropyrazolo[1,5-a]pyrimidin-3-yl)-N—((R)-2-fluoro-3-hydroxy-3-methylbutyl)-4-((3-fluorocyclopentyl)amino)nicotinamide] | 2 nM |
| CC(C)Nc1cc(-c2cnc3ccc(NCCO)nn23)ncc1C(=O)NC[C@@H](F)C(C)(C)O [Example 139, (R)—N-(2-fluoro-3-hydroxy-3-methylbutyl)-6-(6-((2-hydroxyethyl)amino)imidazo[1,2-b]pyridazin-3-yl)-4-(isopropylamino)nicotinamide] | 3 nM |
| CC(C)(O)[C@H](F)CNC(=O)c1cnc(-c2cnn3cc(Cl)cnc23)cc1NCC(F)(F)F [Example 64, (R)-6-(6-chloropyrazolo[1,5-a]pyrimidin-3-yl)-N-(2-fluoro-3-hydroxy-3-methylbutyl)-4-((2,2,2-trifluoroethyl)amino)nicotinamide] | 5 nM |
| CC[C@H](O)CNc1cc(-c2cnn3cc(C#N)cnc23)ncc1C(=O)NC[C@@H](F)C(C)(C)O [Example 125, 6-(6-cyanopyrazolo[1,5-a]pyrimidin-3-yl)-N—((R)-2-fluoro-3-hydroxy-3-methylbutyl)-4-(((S)-2-hydroxybutyl)amino)nicotinamide] | 56 nM |
| CC(C)(O)[C@H](F)CNC(=O)c1cnc(-c2cnn3cc(Cl)cnc23)cc1NC1CCOC1 (stereo partly drawn) [Example 53, 6-(6-chloropyrazolo[1,5-a]pyrimidin-3-yl)-N—((R)-2-fluoro-3-hydroxy-3-methylbutyl)-4-((tetrahydrofuran-3-yl)amino)nicotinamide] | 4 nM |
| CC(Nc1cc(-c2cnn3cc(C#N)cnc23)ncc1C(=O)NC[C@@H](F)C(C)(C)O)c1cccnc1 (stereo partly drawn) [Example 113, 6-(6-cyanopyrazolo[1,5-a]pyrimidin-3-yl)-N—((R)-2-fluoro-3-hydroxy-3-methylbutyl)-4-((1-(pyridin-3-yl)ethyl)amino)nicotinamide] | 53 nM |
| CO[C@H]1CC[C@H](NC(=O)c2cnc(-c3cnn4cc(C#N)cnc34)cc2NC2COC2)CC1 [Example 124, 6-(6-cyanopyrazolo[1,5-a]pyrimidin-3-yl)-N-((1r,4r)-4-methoxycyclohexyl)-4-(oxetan-3-ylamino)nicotinamide] | 12 nM |
| CC(C)(O)[C@H](F)CNC(=O)c1cnc(-c2cnn3cccnc23)cc1NC1CCOCC1 [Example 126, (R)—N-(2-fluoro-3-hydroxy-3-methylbutyl)-6-(pyrazolo[1,5-a]pyrimidin-3-yl)-4-((tetrahydro-2H-pyran-4-yl)amino)nicotinamide] | 22 nM |
| CC(C)Nc1cc(-c2cnc3ccc(NCC(C)(C)O)nn23)ncc1C(=O)NC[C@@H](F)C(C)(C)O [Example 151, (R)—N-(2-fluoro-3-hydroxy-3-methylbutyl)-6-(6-((2-hydroxy-2-methylpropyl)amino)imidazo[1,2-b]pyridazin-3-yl)-4-(isopropylamino)nicotinamide] | 11 nM |
| CC(C)Nc1cc(-c2cnn3cccnc23)ncc1C(=O)NC[C@@H](F)C(C)(C)O [Example 127, (R)—N-(2-fluoro-3-hydroxy-3-methylbutyl)-4-(isopropylamino)-6-(pyrazolo[1,5-a]pyrimidin-3-yl)nicotinamide] | 81 nM |
| COc1cnn2c(-c3cc(NC4COC4)c(C(=O)NC[C@@H](F)C(C)(C)O)cn3)cnc2c1 [Example 154, (R)—N-(2-fluoro-3-hydroxy-3-methylbutyl)-6-(7-methoxyimidazo[1,2-b]pyridazin-3-yl)-4-(oxetan-3-ylamino)nicotinamide] | 16 nM |
| CC(C)(O)[C@H](F)CNC(=O)c1cnc(-c2cnn3cc(Cl)cnc23)cc1N[C@@H]1COC[C@H]1O [Example 42, 6-(6-chloropyrazolo[1,5-a]pyrimidin-3-yl)-N—((R)-2-fluoro-3-hydroxy-3-methylbutyl)-4-(((3R,4S)-4-hydroxytetrahydrofuran-3-yl)amino) nicotinamide] | 8 nM |
| CC(C)Nc1cc(-c2cnn3cc(Cl)cnc23)ncc1C(=O)NCCc1ccc(S(N)(=O)=O)cc1 [Example 26, 6-(6-chloropyrazolo[1,5-a]pyrimidin-3-yl)-4-(isopropylamino)-N-(4-sulfamoylphenethyl)nicotinamide] | 8 nM |

| SMILES | IC50 |
| --- | --- |
| COC1CC(Nc2cc(-c3cnn4cc(Cl)cnc34)ncc2C(=O)NC[C@@H](F)C(C)(C)O)CC1(F)F (single isomer, unassigned) [Example 14] | 22 nM |
| CNC(=O)[C@H]1CC[C@H](NC(=O)c2cnc(-c3cnn4cc(Cl)cnc34)cc2NCC(C)(C)F)CC1 [Example 24, 6-(6-chloropyrazolo[1,5-a]pyrimidin-3-yl)-4-((2-fluoro-2-methylpropyl)amino)-N-((1r,4r)-4-(methylcarbamoyl)cyclohexyl)nicotinamide] | 35 nM |
| CC(C)Nc1cc(-c2cnn3cc(C4CC4)cnc23)ncc1C(=O)NC[C@@H](F)C(C)(C)O [Example 128, (R)-6-(6-cyclopropylpyrazolo[1,5-a]pyrimidin-3-yl)-N-(2-fluoro-3-hydroxy-3-methylbutyl)-4-(isopropylamino)nicotinamide] | 75 nM |
| CC(C)Nc1cc(-c2cnn3cc(F)c(N)nc23)ncc1C(=O)NC[C@@H](F)C(C)(C)O [Example 129, (R)-6-(5-amino-6-fluoropyrazolo[1,5-a]pyrimidin-3-yl)-N-(2-fluoro-3-hydroxy-3-methylbutyl)-4-(isopropylamino)nicotinamide] | 3 nM |
| CC(C)(O)[C@H](F)CNC(=O)c1cnc(-c2cnn3cc(C#N)cnc23)cc1NCC1(O)CCCOC1 (single isomer, unassigned) [Example 123] | 42 nM |
| CC(C)(O)[C@H](F)CNC(=O)c1cnc(-c2cnn3cc(C#N)cnc23)cc1N[C@H]1COC[C@@H]1F (single isomer, unassigned) [Example 117] | 39 nM |
| CNC(=O)[C@H]1CC[C@H](NC(=O)c2cnc(-c3cnn4cc(C#N)cnc34)cc2NCC(C)(C)F)CC1 [Example 102, 6-(6-cyanopyrazolo[1,5-a]pyrimidin-3-yl)-4-((2-fluoro-2-methylpropyl)amino)-N-((1r,4r)-4-(methylcarbamoyl)cyclohexyl)nicotinamide] | 80 nM |
| CC(C)(F)CCNC(=O)c1cnc(-c2cnn3cc(Cl)cnc23)cc1NC1COC1 [Example 12, 6-(6-chloropyrazolo[1,5-a]pyrimidin-3-yl)-N-(3-fluoro-3-methylbutyl)-4-(oxetan-3-ylamino)nicotinamide] | 92 nM |
| CC(C)(O)[C@H](F)CNC(=O)c1cnc(-c2cnn3cc(C#N)cnc23)cc1NCC1(O)COC1 [Example 121, (R)-6-(6-cyanopyrazolo[1,5-a]pyrimidin-3-yl)-N-(2-fluoro-3-hydroxy-3-methylbutyl)-4-(((3-hydroxyoxetan-3-yl)methyl)amino)nicotinamide] | 52 nM |
| CC(C)(O)[C@H](F)CNC(=O)c1cnc(-c2cnn3cc(Cl)cnc23)cc1N[C@@H]1COC[C@H]1F [Example 43, 6-(6-chloropyrazolo[1,5-a]pyrimidin-3-yl)-N—((R)-2-fluoro-3-hydroxy-3-methylbutyl)-4-(((3R,4S)-4-fluorotetrahydrofuran-3-yl)amino)nicotinamide] | 17 nM |
| COc1ccc2ncc(-c3cc(NC(C)C)c(C(=O)NC[C@@H](F)C(C)(C)O)cn3)n2n1 [Example 149, (R)—N-(2-fluoro-3-hydroxy-3-methylbutyl)-4-(isopropylamino)-6-(6-methoxyimidazo[1,2-b]pyridazin-3-yl) nicotinamide] | 18 nM |
| CC(C)(O)[C@H](F)CNC(=O)c1cnc(-c2cnc3cccnn23)cc1NC1COCC1O (single isomer, unassigned) [Example 134] | 92 nM |
| CC[C@H](O)CNc1cc(-c2cnn3cc(Cl)cnc23)ncc1C(=O)NC[C@@H](F)C(C)(C)O [Example 81, 6-(6-chloropyrazolo[1,5-a]pyrimidin-3-yl)-N—((R)-2-fluoro-3-hydroxy-3-methylbutyl)-4-(((S)-2-hydroxybutyl)amino)nicotinamide] | 26 nM |
| CC(C)(O)[C@H]1CC[C@H](NC(=O)c2cnc(-c3cnc4cccnn34)cc2NC2COC2)CC1 [Example 133, N-((1r,4r)-4-(2-hydroxypropan-2-yl)cyclohexyl)-6-(imidazo[1,2-b]pyridazin-3-yl)-4-(oxetan-3-ylamino)nicotinamide] | 36 nM |
| CC(C)(O)[C@H](F)CNC(=O)c1cnc(-c2cnc3cccnn23)cc1NC1COCC1O (single isomer, unassigned) [Example 135] | 44 nM |
